Test results as given in PMC7690281 (Antiviral Research, 2020).
“Also recorded” adds a separate entry of the source. Counter-ions that a name gives are not always drawn.

Assays:
[1] = tested on: VSV pseudovirions with EBOV GP (rVSV-EBOV-luc); assay type: cell-based, Ebola virus (EBOV)
[2] = tested on: acidic endosomes of Vero cells; assay type: cell-based
ASFV Bpp30GFP = assay type: cell-based, African swine fever virus (ASFV); details: for reduction of ASFV infectivity: 10 μM
[3] = tested on: SARS-2-CoV spike protein-pseudotyped retrovirus (SARS-2-Spp); assay type: cell-based, SARS-CoV-2
[4] = tested on: ASFV viral DNA (p72 gene); assay type: cell-based, African swine fever virus (ASFV)
[5] = tested on: ASFV early p30 and late p72 proteins; assay type: cell-based, African swine fever virus (ASFV)
[6] = tested on: endolysosomal calcium in Vero cells; assay type: cell-based

## Cc1cccc(/C=N/Nc2cc(N3CCOCC3)nc(OCCc3ccccn3)n2)c1 [Apilimod]
[1]
  infectivity reduction, EBOV GP pseudovirus: over 75%

## CO/C1=C\C(C)=C\[C@@H](C)[C@@H](O)[C@@H](C)C/C(C)=C/C=C/[C@H](OC)[C@@H]([C@@H](C)[C@@H](O)[C@H](C)[C@@]2(O)C[C@@H](O)[C@H](C)[C@@H](C(C)C)O2)OC1=O [BAF, Bafilomycin]
[2]
  endosome acidification (LysoTracker Red staining): strong reduction of acidic endosomes

## C[C@]12CC[C@@H]3c4ccc(O)cc4CC[C@H]3[C@@H]1CC[C@@H]2O [Estradiol, β-Estradiol]
ASFV Bpp30GFP
  effect on ASFV infection/entry: low impact

## C[C@]12CC[C@@H]3c4ccc(O)cc4C[C@@H](CCCCCCCCC[S+]([O-])CCCC(F)(F)C(F)(F)F)[C@H]3[C@@H]1CC[C@@H]2O (stereo partly drawn) [Fulvestran, Fulvestrant]
ASFV Bpp30GFP; 100 μM
  impact on ASFV infectivity: under 20%

## Cl.O=C(c1ccc(OCCN2CCCCC2)cc1)c1c(-c2ccc(O)cc2)sc2cc(O)ccc12 [Raloxifen, Raloxifene hydrochloride]
[3]
  reduction of SARS-2-Spp entry (luciferase levels) compared to vehicle: over 90%
ASFV Bpp30GFP
  effect on ASFV infection/entry: potent inhibitory effect; also recorded: strongly reduced ASFV entry
  reduction of ASFV infectivity: 80%
[4]
  viral DNA replication (ASFV genome copy number): reduced viral DNA synthesis
[5]
  expression of early viral protein p30 and late viral protein p72: reduction of the expression of early viral protein p30 and late viral protein p72
[6]
  distribution of calcium indicator Fluo8: calcium indicator markedly accumulated in fluorescent vesicles
  distribution of calcium indicator Fluo8 and viral factories: marked accumulation of fluorescent vesicles and the absence of viral factories

## CC/C(=C(\c1ccccc1)c1ccc(OCCN(C)C)cc1)c1ccccc1 [Tamoxifen, Tamoxifen citrate]
ASFV Bpp30GFP
  effect on ASFV infection/entry: potent inhibitory effect; also recorded: strongly reduced ASFV entry
  reduction of ASFV infectivity: 80%
[4]
  viral DNA replication (ASFV genome copy number): reduced viral DNA synthesis
[5]
  expression of early viral protein p30 and late viral protein p72: reduction of the expression of early viral protein p30 and late viral protein p72

## COc1ccc2cc1Oc1ccc(cc1)C[C@H]1c3cc(c(OC)cc3CCN1C)Oc1c(OC)c(OC)cc3c1[C@H](C2)N(C)CC3 [Tetrandine, Tetrandrine]
[3]
  reduction of SARS-2-Spp entry (luciferase levels) compared to vehicle: over 99%

## COc1ccc(CCN(C)CCCC(C#N)(c2ccc(OC)c(OC)c2)C(C)C)cc1OC (stereo not drawn) [Verapamil]
[3]
  reduction of SARS-2-Spp entry (luciferase levels) compared to vehicle: over 90%

## Nc1ccc(C(=O)Nc2cccc(-c3nc(N4CCOCC4)c4oc5ncccc5c4n3)c2)cn1 [YM201636]
[3]; 1 μM
  reduction in the luciferase activity levels (SARS-2-Spp): 65%
